Laboratory results from ChEMBL document CHEMBL4715789, “Identification of a Potential Antimalarial Drug Candidate from a Series of 2-Aminopyrazines by Optimization of Aqueous Solubility and Potency across the Parasite Life Cycle” (J Med Chem, 2016).
Converted amounts (≈) assume the structure as drawn.

Experiments:
[1] = Aqueous solubility of compound in pH 6.5 PBS incubated for 2 hrs under shaking condition by shake-flask method based HPLC-DAD analysis; format: physicochemical
Plasmodium berghei [2] = assay: Antiplasmodial activity against Plasmodium berghei ANKA infected in NMRI mouse model assessed as mean survival days at 3 mg/kg, po qd for 4 consecutive day; format: functional; conditions: time 4 day
[3] = Metabolic stability in human liver microsomes assessed as compound remaining at 0.1 uM measured after 30 mins in presence of cofactor NADPH by LC-MS/MS analysis; format: ADME, Microsome; conditions: read-out: Stabilty
Plasmodium falciparum [4] = assay: microbe, parasite or virus in culture; conditions: NF54, Erythrocyte
Description: Antiplasmodial activity against multidrug-sensitive Plasmodium falciparum NF54 infected in human erythrocytes assessed as reduction in [3H]hypoxanthine incorporation preincubated for 48 hrs followed by [3H]hypoxanthine addition and measured after 24 hrs by liquid scintillation counting method

[5] = Aqueous solubility of compound in pH 2 0.01M HCl incubated for 2 hrs under shaking condition by shake-flask method based HPLC-DAD analysis; format: physicochemical
[6] = Metabolic stability in rat liver microsomes assessed as compound remaining at 0.1 uM measured after 30 mins in presence of cofactor NADPH by LC-MS/MS analysis; format: ADME, Microsome; conditions: read-out: Stabilty
[7] = Metabolic stability in mouse liver microsomes assessed as compound remaining at 0.1 uM measured after 30 mins in presence of cofactor NADPH by LC-MS/MS analysis; format: ADME, Microsome; conditions: read-out: Stabilty
Plasmodium falciparum [8] = assay: microbe, parasite or virus in culture; conditions: K1, Erythrocyte
Description: Antiplasmodial activity against multidrug-resistant Plasmodium falciparum K1 infected in erythrocytes assessed as reduction in [3H]hypoxanthine incorporation preincubated for 48 hrs followed by [3H]hypoxanthine addition and measured after 24 hrs by liquid scintillation counting method

Plasmodium berghei [9] = assay: Antiplasmodial activity against Plasmodium berghei ANKA infected in NMRI mouse model assessed as mean survival days at 10 mg/kg, po qd for 4 consecutive day; format: functional; conditions: time 4 day
Plasmodium berghei [10] = assay: Antiplasmodial activity against Plasmodium berghei ANKA infected in NMRI mouse assessed as reduction in parasitemia at 3 mg/kg, po qd for 4 consecutive days measured at day 7 post infection by flow cytometry analysis; format: functional; parameters: scale not given: the % may be the effect or the level left; conditions: time 4 day
Plasmodium berghei [11] = assay: Antiplasmodial activity against Plasmodium berghei ANKA infected in NMRI mouse assessed as reduction in parasitemia at 10 mg/kg, po qd for 4 consecutive days measured at day 7 post infection by flow cytometry analysis; format: functional; parameters: scale not given: the % may be the effect or the level left; conditions: time 4 day
[12] = Selectivity index, ratio of IC50 for cytotoxicity against CHO cells by MTT assay to IC50 for antiplasmodial activity against multidrug-sensitive Plasmodium falciparum NF54 infected in human erythrocytes; format: toxicity, cell-based; conditions: Chinese hamster, read-out: Ratio IC50
[13] = Cmax(app) in NMRI mouse plasma infected with Plasmodium berghei ANKA at 3 mg/kg, po qd for 4 consecutive days and measured post last dose; format: ADME, organism-based; conditions: time 4 day
[14] = Apparent average plasma concentration in NMRI mouse plasma infected with Plasmodium berghei ANKA at 3 mg/kg, po qd for 4 consecutive days and measured post last dose; format: ADME, organism-based; conditions: in vivo, 96 h, time 4 day
[15] = AUC(app) in NMRI mouse plasma infected with Plasmodium berghei ANKA at 3 mg/kg, po qd for 4 consecutive days and measured post last dose; format: ADME, organism-based; conditions: time 4 day

SMILES	solubility thermodynamic at 2 h [1] [µM]	MSD (Plasmodium berghei [2]) [days]	remaining at 0.5 h, 0.1 µM [3] [%]	IC50 (Plasmodium falciparum [4]) [µM]	solubility thermodynamic at 2 h [5] [µM]	remaining at 0.5 h, 0.1 µM [6] [%]	remaining at 0.5 h, 0.1 µM [7] [%]	IC50 (Plasmodium falciparum [8]) [µM]	MSD (Plasmodium berghei [9]) [days]	Activity (Plasmodium berghei [10]) [%]	Activity (Plasmodium berghei [11]) [%]	selectivity ratio [12]	Cmax [13] [nM]	Cave [14] [nM]	AUC at 96 h [15] [µM·h]
CN1CCCN(C(=O)c2ccc(-c3cnc(N)c(-c4ccc(C(F)(F)F)nc4)n3)cc2)CC1	85 (≈ 38.8 µg/mL)	12	> 90	0.015	200 (≈ 91.3 µg/mL)	> 90	> 90	0.0099							
NC(=O)c1ccc(-c2cnc(N)c(-c3ccc(C(F)(F)F)nc3)n2)cn1	5 (≈ 1.8 µg/mL)	7	> 90	0.0052	7 (≈ 2.52 µg/mL)	> 90	> 90	0.0072	14	97.5	99.9	> 1800			
NC(=O)c1ccc(-c2cnc(N)c(-c3ccc(C(N)=O)cc3)n2)cc1				0.025				0.021							
N#Cc1ccc(-c2cnc(N)c(-c3ccc(C(N)=O)cc3)n2)cc1				0.057				0.044							
Nc1ncc(-c2ccc(C(=O)N3CCC(N)C3)cc2)nc1-c1ccc(C(F)(F)F)nc1 (stereo not given)	116 (≈ 49.7 µg/mL)	7		0.04	200 (≈ 85.7 µg/mL)			0.026		47					
Nc1ncc(-c2ccc(C(=O)N3CCC(N)CC3)cc2)nc1-c1ccc(C(F)(F)F)cc1	88 (≈ 38.8 µg/mL)	7		0.01	200 (≈ 88.3 µg/mL)			0.0075		65					
N#Cc1ccc(-c2cnc(N)c(-c3ccc(C(F)(F)F)nc3)n2)nc1				2.71											
NC(=O)c1ccc(-c2cnc(N)c(-c3ccc(C(F)(F)F)nc3)n2)cc1	< 5	7.7	> 90	0.02	< 5	> 90	> 90	0.016	14				5000	2900	69.3
N#Cc1ccc(-c2cnc(N)c(-c3ccc(N)nc3)n2)cc1	< 5		> 90	0.222	208 (≈ 60 µg/mL)	> 90	> 90	0.149							
Nc1ncc(-c2ccc(C(=O)N3CCCNCC3)cc2)nc1-c1ccc(C(F)(F)F)cc1	128 (≈ 56.5 µg/mL)	11		0.0077	190 (≈ 83.9 µg/mL)			0.0063		88					
Nc1ccc(-c2nc(-c3ccc(S(=O)(=O)C4CC4)cc3)cnc2N)cn1	13 (≈ 4.78 µg/mL)		> 90	0.038	212 (≈ 77.9 µg/mL)	> 90	> 90	0.044							
CC(C)(C)N1CCN(C(=O)c2ccc(-c3cnc(N)c(-c4ccc(C(F)(F)F)nc4)n3)cc2)CC1	113 (≈ 54.8 µg/mL)	14		0.0089	200 (≈ 96.9 µg/mL)			0.0064		88			1520	570	4.34
Nc1ncc(-c2ccc(C(=O)N3CCC(O)C3)cc2)nc1-c1ccc(C(F)(F)F)nc1 (stereo not given)	155 (≈ 66.6 µg/mL)	7		0.018	200 (≈ 85.9 µg/mL)			0.012		61					
Nc1ncc(-c2ccc(C(F)(F)F)nc2)nc1-c1ccc(C(F)(F)F)nc1			> 90			> 90	> 90								
Nc1ncc(-c2ccc(C(=O)N3CCNCC3)cc2)nc1-c1ccc(C(F)(F)F)nc1	198 (≈ 84.8 µg/mL)		> 90	0.0091	200 (≈ 85.7 µg/mL)	> 90	> 90	0.0077		<40					
